Results from a compilation of properties of binary mixtures (doi:10.1016/j.molliq.2011.08.008).

Test: xn = mol fraction of the nth substance listed
Conditions: 100 kPa

CCOCCOCCOCCO + CCCC[n+]1ccn(C)c1.F[P-](F)(F)(F)(F)F
speed of sound [m/s]
Conditions	x2 = 0.0558	x2 = 0.1123	x2 = 0.2121	x2 = 0.3079	x2 = 0.4014	x2 = 0.5002	x2 = 0.6006	x2 = 0.7035	x2 = 0.8015	x2 = 0.9075
288.15 K	–	1474.2	–	1486.2	1487.1	1485	1481.8	1478.4	1469.4	1467.9
293.15 K	1448.3	1457	1466.8	1470.5	1472.2	1470.8	1468.1	–	–	–
298.15 K	1430.9	1440	1450.5	1455	1457.3	–	1454.5	1452.5	1444.6	–
303.15 K	1414.1	1423.2	1434.3	1439.6	1442.5	1442.7	1441.2	1439.1	–	1431.2
308.15 K	1397.3	1406.5	1418.1	1424.2	1427.7	–	1427.8	1426.1	1420.7	1419.5
313.15 K	–	–	1402.2	1409	1413.1	1415	1414.5	1413.5	–	1408
318.15 K	1363.8	1373.6	1386.2	1393.8	1398.8	1401.1	1401.5	1400.7	1397.8	1396.6
